Patent publication US7304064B2, “1-[(indol-3-yl)carbonyl]piperazine derivatives” (N.V. Organon, priority 2002, dated 2007)
pEC50: −log10 of the molar value. Read-outs that look alike come from different tables or passages of the source.

Tests used:
human CB1 receptor = target: T1, human CB1 receptor (Homo sapiens, UniProt P21554); assay: In-vitro determination of efficacy and potency at the human CB1 receptor expressed in CHO cells (luciferase reporter); assay type: cell-based; conditions: for EC50: CHO cells expressing the human CB1 receptor and a luciferase reporter gene, 5 hours incubation, read-out: pEC50 (converted)
T1 construct: expressed in transfected cells; host or cells: CHO (Chinese Hamster Ovary) cells
T1 sequence (P21554 whole entry): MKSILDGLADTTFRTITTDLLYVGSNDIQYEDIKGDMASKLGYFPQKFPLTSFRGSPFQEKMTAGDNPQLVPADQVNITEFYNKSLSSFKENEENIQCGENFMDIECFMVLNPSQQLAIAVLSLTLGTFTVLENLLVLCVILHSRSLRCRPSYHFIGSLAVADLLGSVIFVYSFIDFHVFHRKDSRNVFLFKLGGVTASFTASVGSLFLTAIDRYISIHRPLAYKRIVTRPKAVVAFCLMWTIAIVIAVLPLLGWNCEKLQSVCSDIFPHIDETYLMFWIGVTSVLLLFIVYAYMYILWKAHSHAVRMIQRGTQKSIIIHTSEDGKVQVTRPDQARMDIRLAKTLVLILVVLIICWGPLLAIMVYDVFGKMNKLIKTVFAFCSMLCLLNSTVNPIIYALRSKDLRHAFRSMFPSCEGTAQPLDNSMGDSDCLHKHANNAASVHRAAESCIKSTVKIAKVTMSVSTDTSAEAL

Mice = assay: Tail flick latency in mice; assay type: in vivo; conditions: Mus musculus, iv, administered intravenously, ED50 calculated at Tmax, read-out: ED50 (increase of tail flick latency)
Description: Mice were trained to sit still in a tail flick apparatus (Ugo Basile, Italy) whilst tail flick latency was measured. The tail was exposed to a focused beam of radiant heat at a point approximately 2.5 cm from the tip. Tail flick latency was defined as the interval between the appliance of the thermal stimulus and withdrawal of the tail. A 12 second cut-off was employed to prevent tissue damage. Four groups of eight mice were treated with vehicle or one of three doses of the test compound, administered intravenously (vehicle: saline 9 g/l; injection volume 10 ml/kg). Tail flick latency was measured before administration of the test compound and at regular intervals (typically 20, 40 and 60 minutes) after compound administration. The ED50 was calculated at Tmax.

SMILES: CCN1CCN(C(=O)c2cn(C(C)C3CCCCC3)c3ccccc23)CC1 (single isomer, unassigned; (+)) [(+)-5I, (+)-1-{[1-(1-Cyclohexylethyl)-1H-indol-3-yl]carbonyl)-4-ethylpiperazine]
- pEC50 (human CB1 receptor): 7.10

SMILES: CCN1CCN(C(=O)c2cn(CC3CCCC3)c3c(OC)cccc23)CC1 [Example 2, 1-{[1-(Cyclopentylmethyl)-7-methoxy-1H-indol-3-yl]carbonyl}-4-ethylpiperazine]
- pEC50 (human CB1 receptor): 6.50

SMILES: COc1cccc2c(C(=O)N3CCN(CCO)CC3)cn(CC3CCCCC3)c12 [Example 3C, 1-{[1-(Cyclohexylmethyl)-7-methoxy-1H-indol-3-yl]carbonyl}-4-(2-hydroxyethyl)piperazine]
- EC50 (human CB1 receptor): 251 nM

SMILES: CCN1CCN(C(=O)c2cn(CC3CCCCC3)c3c(F)cccc23)CC1 [Example 5B, 1-{[1-(Cyclohexylmethyl)-7-fluoro-1H-indol-3-yl]carbonyl}-4-ethylpiperazine]
- pEC50 (human CB1 receptor): 7.00

SMILES: CCN1CCN(C(=O)c2cn(CC3CC=CCC3)c3c(OC)cccc23)CC1 (centres unmarked) [Example 5Q, 1-{[1-(Cyclohex-3-enylmethyl)-7-methoxy-1H-indol-3-yl]carbonyl}-4-ethylpiperazine]
- pEC50 (human CB1 receptor): 6.70

SMILES: CN1CCN(C(=O)c2cn(CC3CCCCC3)c3cc(F)ccc23)CC1 [Example 5T, 1-{[1-(Cyclohexylmethyl)-6-fluoro-1H-indol-3-yl]carbonyl}-4-methylpiperazine]
- pEC50 (human CB1 receptor): 6.60

SMILES: CCN1C(C)CN(C(=O)c2cn(CC3CCCCC3)c3c(OC)cccc23)CC1C (centres unmarked) [Example 14, 1-{[1-(Cyclohexylmethyl)-7-methoxy-1H-indol-3-yl]carbonyl}-3,5-dimethyl-4-ethylpiperazine]
- pEC50 (human CB1 receptor): 8.00
- ED50 (Mice): < 5 µmol/kg

SMILES: COc1cccc2c(C(=O)N3CC(C)N(C)C(C)C3)cn(CC3CCCCC3)c12 (centres unmarked) [Example 15F, 1-{[1-(cyclohexylmethyl)-7-methoxy-1H-indol-3-yl]carbonyl}-3,4,5-trimethylpiperazine]
- pEC50 (human CB1 receptor): 7.50
- ED50 (Mice): < 5 µmol/kg

SMILES: COc1cccc2c(C(=O)N3CCN(C)[C@@H](C)C3)cn(CC3CCCCC3)c12 [Example 15O, (S)-1-{[1-(cyclohexylmethyl)-7-methoxy-1H-indol-3-yl]carbonyl}-3,4-dimethylpiperazine]
- pEC50 (human CB1 receptor): 7.60
- ED50 (Mice): < 5 µmol/kg

SMILES: COc1cccc2c(C(=O)N3CCN4CCCC[C@H]4C3)cn(CC3CCCCC3)c12 [Example 17A, (S)-2-{[1-(Cyclohexylmethyl)-7-methoxy-1H-indol-3-yl]carbonyl}-octahydro-2H-Pyrido[1,2-a]pyrazine]
- EC50 (human CB1 receptor): 12.6 nM
- ED50 (Mice): < 5 µmol/kg

SMILES: COc1cccc2c(C(=O)N3CCN4CCC[C@H]4C3)cn(CC3CCCCC3)c12 [Example 17C, (S)-2-{[1-(Cyclohexylmethyl)-7-methoxy-1H-indol-3-yl]carbonyl}-octahydro-2H-Pyrrolo[1,2-a]pyrazine]
- EC50 (human CB1 receptor): 25.1 nM
- ED50 (Mice): < 5 µmol/kg

SMILES: COc1cccc2c(C(=O)N3CCN4CCCC[C@H]4C3)cn(CC3CCCC3)c12 [Example 17D, (S)-2-{[1-(Cyclopentylmethyl)-7-methoxy-1H-indol-3-yl]carbonyl}-octahydro-2H-pyrido[1,2-a]pyrazine]
- EC50 (human CB1 receptor): 31.6 nM
- ED50 (Mice): < 5 µmol/kg

SMILES: CCN1CCN(C(=O)c2cn(CCN3CCOCC3)c3c(OC)cccc23)CC1 [Ref. 2, 1-Ethyl-4-{[7-methoxy-1-[2-(4-morpholin-yl)ethyl]-1H-indol-3-y]carbonyl}-piperazine, reference compound]
- pEC50 (human CB1 receptor): < 5.00

SMILES: CCN1CCN(C(=O)c2cn(Cc3ccccc3)c3c(OC)cccc23)CC1 [Ref. 3., 1-{[1-Benzyl-7-methoxy-1H-indol-3-yl]carbonyl}-4-ethylpiperazine, reference compound]
- pEC50 (human CB1 receptor): < 5.00
